Assay results taken from ChEMBL document CHEMBL1201862, “PubChem BioAssay data set” (2004).
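The compound was tested at five concentrations on cells cultured in 96-well plates, with a 48-hour exposure period. GI50: concentration for 50% inhibition of growth.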 Calls of active or inactive are those of the source. No stated cut-off is given here; in the data, active = GI50 up to about 1.1 µM and inactive = higher.

Key:
Assay in all cases: NCI anticancer screen, dose series, 48 h
[1] = tested on: PC-3
[2] = tested on: SK-MEL-2
[3] = tested on: M14
[4] = tested on: OVCAR-5
[5] = tested on: CCRF-CEM
[6] = tested on: SR
[7] = tested on: SNB-19
[8] = tested on: OVCAR-4
[9] = tested on: SF-268
[10] = tested on: SF-295
[11] = tested on: SF-539
[12] = tested on: HCT-116
[13] = tested on: LOX IMVI
[14] = tested on: U-251
[15] = tested on: UACC-257
[16] = tested on: SW-620
[17] = tested on: UACC-62
[18] = tested on: NCI-H226
[19] = tested on: SNB-75

Measured: GI50

Cc1cc(C)c(C2CC(O)C(CO)O2)cc1C (stereo unspecified)
inactive: [1] > 100 µM | [2] > 100 µM | [3] > 100 µM | [4] > 100 µM | [5] > 100 µM | [6] > 100 µM | [7] > 100 µM | [8] > 100 µM | [9] > 100 µM | [10] > 100 µM | [11] > 100 µM | [12] > 100 µM | [13] > 100 µM | [14] > 100 µM | [15] > 100 µM | [16] > 100 µM | [17] > 100 µM | [18] > 100 µM | [19] > 100 µM

Nc1c(-c2ccccc2)c2ccc([N+](=O)[O-])cc2c(=O)n1-c1cccc(C(=O)O)c1
inactive: [1] > 100 µM | [2] > 100 µM | [3] > 100 µM | [4] > 100 µM | [5] 94.6 µM | [6] > 100 µM | [7] > 100 µM | [8] > 100 µM | [9] > 100 µM | [10] > 100 µM | [11] > 100 µM | [12] > 100 µM | [13] > 100 µM | [14] > 100 µM | [15] > 100 µM | [16] > 100 µM | [17] > 100 µM | [18] > 100 µM | [19] > 100 µM

O=C(CC(O)(C(F)(F)F)C(F)(F)F)C(CCCl)C(O)(C(F)(F)F)C(F)(F)F (stereo unspecified)
inactive: [1] 15.5 µM | [2] 36.2 µM | [3] 40.6 µM | [4] 44.2 µM | [5] 39.9 µM | [6] 27.3 µM | [7] 34.5 µM | [8] 49.2 µM | [9] 30.7 µM | [10] 33.5 µM | [11] 54.8 µM | [12] 26.7 µM | [13] 55.7 µM | [14] 35.6 µM | [15] 30.8 µM | [16] 51.6 µM | [17] 53.2 µM | [18] 23.5 µM | [19] 24.9 µM

CC(O)C(NC(=O)C(CS)NC(=O)C(CO)NC(=O)C(CCCCN)NC(=O)C(Cc1c[nH]c2ccccc12)NC(=O)C(Cc1ccc(O)cc1)NC(=O)C(CS)NC(=O)C(N)Cc1ccccc1)C(N)=O (stereo unspecified)
inactive: [1] > 25 µM | [2] > 25 µM | [3] > 25 µM | [4] > 25 µM | [5] > 25 µM | [6] > 25 µM | [7] 26.2 µM | [8] 8.53 µM | [9] > 25 µM | [10] > 25 µM | [11] > 25 µM | [12] > 25 µM | [13] > 25 µM | [14] > 25 µM | [15] > 25 µM | [16] > 25 µM | [17] > 25 µM | [18] > 25 µM | [19] 25 µM
